Reference: ChEMBL document CHEMBL1133301, “Beta-keto-ester chemistry and ketolides. Synthesis and antibacterial activity of 2-halogeno, 2-methyl and 2,3 enol-ether ketolides” (2000)
Values after ≈ are worked out from the molar mass of the structure shown.

Columns and labels:
Type in all cases: functional
Streptococcus pneumoniae [1] = test: The compound has been evaluated for the antibacterial activity against Streptococcus pneumoniae EryS 032UC1 strains
Streptococcus pneumoniae [2] = test: The compound has been evaluated for the antibacterial activity against Streptococcus pneumoniae EryRc 030PW23c strains
Staphylococcus aureus [3] = test: The compound has been evaluated for the antibacterial activity against Staphylococcus aureus EryS 011UC4 strains
Streptococcus pneumoniae [4] = test: The compound has been evaluated for the antibacterial activity against Streptococcus pneumoniae EryRc 030SJ1 strains
Haemophilus influenzae = test: The compound has been evaluated for the antibacterial activity against Haemophilus influenzae 351HT3 (beta-lactamase +)
Staphylococcus aureus [5] = test: The compound has been evaluated for the antibacterial activity against Staphylococcus aureus EryRc 011CB20 strains
Streptococcus pyogenes = test: The compound has been evaluated for the antibacterial activity against Streptococcus pyogenes EryS 02A1UC1.
Streptococcus pneumoniae [6] = test: The compound has been evaluated for the antibacterial activity against Streptococcus pneumoniae Ery Ri 030SJ 5i strains
Staphylococcus aureus [7] = test: The compound has been evaluated for the antibacterial activity against Staphylococcus aureus EryRi 011GO25i strains
Mus musculus [8] = test: The compound has been evaluated for the in vivo efficacy that protect 50% of mice from lethal infection by Streptococcus Pneumonia EryS 032UC1 strain after oral administration
Mus musculus [9] = test: The compound has been evaluated for the in vivo efficacy that protect 50%of mice from lethal infection by Haemophilus influenzae AmpR 351RD7 after oral administration
Mus musculus [10] = test: The compound has been evaluated for the in vivo efficacy that protect 50% of mice from lethal infection by Streptococcus Pneumoniae EryRc 030MV2 strains after oral administration
Mus musculus [11] = test: The compound has been evaluated for the in vivo efficacy that protect 50% of mice from lethal infection by Staphylococcus aureus EryS 011HT17 strains after oral administration
Mus musculus [12] = test: The compound has been evaluated for the in vivo efficacy that protect 50% of mice from lethal infection by Streptococcus Pneumoniae EryRi 030SJ5i strains after oral administration
Mus musculus [13] = test: The compound has been evaluated for the in vivo efficacy that protect 50% of mice from lethal infection of Streptococcus Pneumoniae EryRc 030MV2 strains after oral administration
Mus musculus [14] = test: The compound has been evaluated for the in vivo efficacy that protect 50% of mice from lethal infection of Streptococcus Pneumoniae EryRi 030SJ5i strains after oral administration
Mus musculus [15] = test: The compound has been evaluated for the in vivo efficacy that protect 50% of mice from lethal infection of Streptococcus Pneumonia EryS 032UC1 strain after oral administration
Mus musculus [16] = test: The compound has been evaluated for the in vivo efficacy that protect 50% of mice from lethal infection of Staphylococcus aureus EryS 011HT17 strains after oral administration
Mus musculus [17] = test: The compound has been evaluated for the in vivo efficacy that protect 50%of mice from lethal infection of Haemophilus influenzae AmpR 351RD7 after oral administration

Row | MIC (Streptococcus pneumoniae [1]) [mg/L] | MIC (Streptococcus pneumoniae [2]) [mg/L] | MIC (Staphylococcus aureus [3]) [mg/L] | MIC (Streptococcus pneumoniae [4]) [mg/L] | MIC (Haemophilus influenzae) [mg/L] | MIC (Staphylococcus aureus [5]) [mg/L] | MIC (Streptococcus pyogenes) [mg/L] | MIC (Streptococcus pneumoniae [6]) [mg/L] | MIC (Staphylococcus aureus [7]) [mg/L] | SMILES | ED50 (Mus musculus [8]) [mg/kg] | ED50 (Mus musculus [9]) [mg/kg] | ED50 (Mus musculus [10]) [mg/kg] | ED50 (Mus musculus [11]) [mg/kg] | ED50 (Mus musculus [12]) [mg/kg] | ED50 (Mus musculus [13]) [mg/kg] | ED50 (Mus musculus [14]) [mg/kg] | ED50 (Mus musculus [15]) [mg/kg] | ED50 (Mus musculus [16]) [mg/kg] | ED50 (Mus musculus [17]) [mg/kg]
1 | 0.15 (≈ 0.164 µM) | 2.5 (≈ 2.74 µM) | 2.5 (≈ 2.74 µM) | 10 (≈ 11 µM) | 20 (≈ 21.9 µM) | > 40 | 0.3 (≈ 0.329 µM) | 5 (≈ 5.48 µM) | 20 (≈ 21.9 µM) | CC[C@H]1OC(=O)/C(C)=C(/OCOCCN(C)C)[C@H](C)[C@@H](O[C@@H]2O[C@H](C)C[C@H](N(C)C)[C@H]2O)[C@](C)(OC)C[C@@H](C)C(=O)[C@H](C)[C@H]2N(CCCCn3cnc(-c4cccnc4)c3)C(=O)O[C@]12C |  |  |  |  |  |  |  |  |  | 
2 | 0.02 (≈ 0.0242 µM) | 2.5 (≈ 3.03 µM) | 0.6 (≈ 0.726 µM) | 2.5 (≈ 3.03 µM) | 2.5 (≈ 3.03 µM) | > 40 | 0.02 (≈ 0.0242 µM) | 0.6 (≈ 0.726 µM) | 1.2 (≈ 1.45 µM) | CC[C@H]1OC(=O)C(C)(C)C(=O)[C@H](C)[C@@H](O[C@@H]2O[C@H](C)C[C@H](N(C)C)[C@H]2O)[C@](C)(OC)C[C@@H](C)C(=O)[C@H](C)[C@H]2N(CCCCn3cnc(-c4cccnc4)c3)C(=O)O[C@]12C |  |  |  |  |  |  |  |  |  | 
3 | 0.8 (≈ 0.833 µM) | 20 (≈ 20.8 µM) | 5 (≈ 5.21 µM) | 20 (≈ 20.8 µM) | > 40 | > 40 | 0.15 (≈ 0.156 µM) | 20 (≈ 20.8 µM) | > 40 | CC[C@H]1OC(=O)/C(C)=C(/OCOCCCc2ccccc2)[C@H](C)[C@@H](O[C@@H]2O[C@H](C)C[C@H](N(C)C)[C@H]2O)[C@](C)(OC)C[C@@H](C)C(=O)[C@H](C)[C@H]2N(CCCCn3cnc(-c4cccnc4)c3)C(=O)O[C@]12C |  |  |  |  |  |  |  |  |  | 
4 | 0.02 (≈ 0.0251 µM) | 0.3 (≈ 0.377 µM) | 0.08 (≈ 0.101 µM) | 10 (≈ 12.6 µM) | 2.5 (≈ 3.14 µM) | > 40 | 0.02 (≈ 0.0251 µM) | 2.5 (≈ 3.14 µM) | 0.3 (≈ 0.377 µM) | CC[C@H]1OC(=O)/C(C)=C\[C@H](C)[C@@H](O[C@@H]2O[C@H](C)C[C@H](N(C)C)[C@H]2O)[C@](C)(OC)C[C@@H](C)C(=O)[C@H](C)[C@H]2N(CCCCn3cnc(-c4cccnc4)c3)C(=O)O[C@]12C |  |  |  |  |  |  |  |  |  | 

The next lines start with the compound.

Row | SMILES | MIC (Streptococcus pneumoniae [1]) [mg/L] | MIC (Streptococcus pneumoniae [2]) [mg/L] | MIC (Staphylococcus aureus [3]) [mg/L] | MIC (Streptococcus pneumoniae [4]) [mg/L] | MIC (Haemophilus influenzae) [mg/L] | MIC (Staphylococcus aureus [5]) [mg/L] | MIC (Streptococcus pyogenes) [mg/L] | MIC (Streptococcus pneumoniae [6]) [mg/L] | MIC (Staphylococcus aureus [7]) [mg/L] | ED50 (Mus musculus [8]) [mg/kg] | ED50 (Mus musculus [9]) [mg/kg] | ED50 (Mus musculus [10]) [mg/kg] | ED50 (Mus musculus [11]) [mg/kg] | ED50 (Mus musculus [12]) [mg/kg] | ED50 (Mus musculus [13]) [mg/kg] | ED50 (Mus musculus [14]) [mg/kg] | ED50 (Mus musculus [15]) [mg/kg] | ED50 (Mus musculus [16]) [mg/kg] | ED50 (Mus musculus [17]) [mg/kg]
5 | CC[C@H]1OC(=O)[C@@](C)(F)C(=O)[C@H](C)[C@@H](O[C@@H]2O[C@H](C)C[C@H](N(C)C)[C@H]2O)[C@](C)(OC)C[C@@H](C)C(=O)[C@H](C)[C@H]2N(CCCCn3cnc(-c4cccnc4)c3)C(=O)O[C@]12C | < 0.02 | < 0.02 | 0.02 (≈ 0.0241 µM) | < 0.02 | 1.2 (≈ 1.45 µM) | > 40 | < 0.02 | < 0.02 | 0.08 (≈ 0.0964 µM) | 1.5 | 56 | 2 | 9 | 4.3 |  |  |  |  | 
6 | CC[C@H]1OC(=O)C(C)(Cl)C(=O)[C@H](C)[C@@H](O[C@@H]2O[C@H](C)C[C@H](N(C)C)[C@H]2O)[C@](C)(OC)C[C@@H](C)C(=O)[C@H](C)[C@H]2N(CCCCn3cnc(-c4cccnc4)c3)C(=O)O[C@]12C (stereo partly specified) | 0.04 (≈ 0.0473 µM) | 1.2 (≈ 1.42 µM) | 0.6 (≈ 0.709 µM) | 5 (≈ 5.91 µM) | 2.5 (≈ 2.95 µM) | > 40 | 0.04 (≈ 0.0473 µM) | 0.6 (≈ 0.709 µM) | > 40 |  |  |  |  |  |  |  |  |  | 
7 | CC[C@H]1OC(=O)[C@H](C)[C@@H](O[C@H]2C[C@@](C)(OC)[C@@H](O)[C@H](C)O2)[C@H](C)[C@@H](O[C@@H]2O[C@H](C)C[C@H](N(C)C)[C@H]2O)[C@](C)(O)C[C@@H](C)CN(C)[C@H](C)[C@@H](O)[C@]1(C)O [AZITHROMYCIN] | 0.15 (≈ 0.2 µM) | > 40 | 0.3 (≈ 0.401 µM) | > 40 | 1.2 (≈ 1.6 µM) | > 40 | 0.6 (≈ 0.801 µM) | > 40 | > 40 |  |  |  |  |  | > 50 | > 50 | 4.5 | 72 | 94
8 | CC[C@H]1OC(=O)[C@H](C)[C@@H](O[C@H]2C[C@@](C)(OC)[C@@H](O)[C@H](C)O2)[C@H](C)[C@@H](O[C@@H]2O[C@H](C)C[C@H](N(C)C)[C@H]2O)[C@](C)(OC)C[C@@H](C)C(=O)[C@H](C)[C@@H](O)[C@]1(C)O [CLARITHROMYCIN] | 0.04 (≈ 0.0535 µM) | > 40 | 0.3 (≈ 0.401 µM) | > 40 | 5 (≈ 6.68 µM) | > 40 | 0.008 (≈ 0.0107 µM) | > 40 | > 40 | 2 | > 150 | > 50 | 12 | > 50 |  |  |  |  | 
9 | CC[C@H]1OC(=O)[C@H](C)C(=O)[C@H](C)[C@@H](O[C@@H]2O[C@H](C)C[C@H](N(C)C)[C@H]2O)[C@](C)(OC)C[C@@H](C)C(=O)[C@H](C)[C@H]2N(CCCCn3cnc(-c4cccnc4)c3)C(=O)O[C@]12C [TELITHROMYCIN] | < 0.02 | 0.04 (≈ 0.0493 µM) | 0.04 (≈ 0.0493 µM) | < 0.02 | 1.2 (≈ 1.48 µM) | > 40 | < 0.02 | < 0.02 | 0.08 (≈ 0.0985 µM) |  |  |  |  |  |  |  |  |  | 
